# Measurements from patent US20240360194A1, “New Peptides as Potent and Selective GIP Receptor Agonists” (Sanofi, priority 2021, published 2024).
# Numbered stars: 1 amine (or outer) side, 2 acyl side, 3 side chain; on linkers, the order of the positions; unused ones are H or OH. Square brackets hold non-standard residues; d marks the D form. Side chains are listed from the residue outwards. Peptide text beside a SMILES is read from it. * marks the point of attachment. C18 diacid = O=C(O)CCCCCCCCCCCCCCCCC(=O)*; γGlu = O=C(O)[C@H](CCC(=O)[*:2])N[*:1]; AEEA = NCCOCCOCC(=O)O; Aib = CC(C)(N)C(=O)O
# What was measured:
# C57Bl/6 mice = test: Acute effects after s.c. treatment on blood glucose in an intraperitoneal glucose tolerance test (ipGTT); assay type: in vivo, male C57Bl/6NCrl mice; conditions: for Blood glucose concentration AUC / Incremental blood glucose concentration AUCi: mean ± SEM; for Incremental blood glucose concentration AUCi: baseline corrected; for minimal effective dose for improvement of i.p. glucose tolerance: single s.c. dose, C57Bl/6NCrl mice, vs. vehicle
# From the text: Acute Effects after Subcutaneous (s.c.) Treatment on Blood Glucose in an Intraperitoneal (i.p.) Glucose Tolerance Test (ipGTT) in Healthy, Male C57Bl/6 Mice
# Healthy, normoglycemic male C57Bl/6NCrl mice were ordered in an age of 9-10 weeks with an approximate body weight (BW) of 24-26 g at Charles River Laboratories Deutschland GmbH, 97633 Sulzfeld, Germany. Mice were shipped grouped housed (N=4 per cage), acclimatized for one week and remained grouped housed throughout the entire study. Mice were housed under vivarium conditions that included a 12 h light/dark cycle (light phase 06:00 AM-06:00 PM), mean room temperature of 22±2° C. and a relative mean humidity of 55±10%. All animals had free access to food (Ssniff R/M-H diet) and water prior to study start. At study start mice were between 10-11 weeks old.
# The primary objective of the study was to investigate the compound-induced lowering of the blood glucose excursion and improvement of glucose tolerance in a mouse ipGTT setting and therefore the primary parameters included blood glucose, delta blood glucose (normalized to the time point just prior to the i.p. glucose challenge, t=0 h) and their respective calculated area under curve (AUC) values. The study was performed as an acute, single dosing study with 6 groups and the male animals were randomly divided to groups of 7-8 mice per group. Dose-dependent pharmacodynamic blood glucose lowering efficacy of the GIPR agonist was analyzed with s.c. injections 6 h before the i.p. glucose load in the dose range from 3 up to 100 nmol/kg and compared to the vehicle group as well as the semaglutide positive control at a dose of 10 nmol/kg.
# In more detail, mice were fed overnight and on the following morning brought to the lab with food removed but ad libitum access to water. Blood samplings (5 μl) were performed at: −6.5, −0.5, 0, 0.17, 0.5, 1, 1.5, 2 and 3 h before and after the glucose bolus of 1 g glucose per kg BW i.p. given at time point t=0 h. On time point t=0.17 h an additional K-EDTA plasma sample from 60-80 μl blood was taken for plasma insulin analysis. Blood was withdrawn from the tip of the tail. The GIPR agonist and semaglutide were dissolved in 10 mM phosphate buffer pH 7.4 with 2.3% glycerol and 0.01% polysorbat 20 (vehicle) and s.c. treatment was performed −6 h before the glucose load (t=0 h) using an injection volume of 5 ml/kg. The injection solutions were freshly prepared prior to the experiment using sterile filtered vehicle solution. Blood glucose was determined enzymatically (Gluco-quant® Glucose/HK kit on Roche/Hitachi 912). Plasma insulin was determined using a mouse/rat insulin sandwich immunoassay kit from Meso Scale Discovery.
# All data were collected using Microsoft Excel. None of the data were collected online. The results are expressed as means±standard error of the mean (SEM). As primary study parameters, blood glucose, baseline (time point t=0 h) subtracted delta blood glucose and their respective calculated area under curve (AUC) values were determined.
# The statistical analysis of the ipGTT blood glucose excursion data response following subcutaneous compound or vehicle treatment was performed on the calculated AUC values of blood glucose raw data as well as the calculated AUC values for baseline subtracted delta blood glucose data. In a first step the Levene's test was used to test for equality of variances between groups. […] Where Levene's test was not significant (p>0.05) ANOVA was conducted without prior rank transformation. In a second step a One-way ANOVA analysis for factor treatment followed by Dunnett's multiple comparisons test vs. vehicle group was used to test for statistical differences. All analyses were performed using SAS (version 9.4) under Linux via the interface software EverSt@t V6.1.
# Male C57Bl/6NCrl mice were fed overnight and on the following morning brought to the lab with food removed but adlibitum access to water. […]
# [1] = Pharmacokinetic evaluation in minipigs; assay type: in vivo; conditions: female, Göttingen, minipig, plasma
# Procedure: Compounds were administered in a suitable buffer system, e.g. PBS buffer solution at pH7.4 or DPBS solution at concentrations of 0.05, 0.1, 0.5 or 1 mg/ml depending on dose, species and administration volume.
# Female Göttingen minipigs were dosed 0.05 mg/kg intravenously (i.v.) or 0.1 mg/kg subcutaneously (s.c.). Blood samples were collected at 0 h and after 0.083, 0.25, 0.5, 1, 2, 4, 8, 24, 32, 48, 56, 72, 80, and 96 h post i.v. application and at 0 h and after 0.25, 0.5, 1, 2, 4, 8, 24, 32, 48, 56, 72, 80, and 96 h post s.c. application, respectively. Plasma samples were analysed after protein precipitation via liquid chromatography mass spectrometry (LC/MS). PK parameters and half-life were calculated using Phoenix-WinNonlin 8.1 using a non-compartmental model and linear trapezoidal interpolation calculation.
# Pharmacokinetic profiles were determined as described in Methods.
smiles,measurement,setting,value
"CC[C@H](C)[C@H](NC(=O)[C@H](Cc1ccccc1)NC(=O)[C@H](CCC(=O)O)NC(=O)[C@H](CCC(=O)O)NC(=O)[C@H](CCC(N)=O)NC(=O)[C@H](Cc1c[nH]cn1)NC(=O)[C@@H](NC(=O)[C@H](CCCNC(=N)N)NC(=O)[C@H](CC(=O)O)NC(=O)[C@H](CCCCNC(=O)COCCOCCNC(=O)COCCOCCNC(=O)CC[C@H](NC(=O)CCCCCCCCCCCCCCCCC(=O)O)C(=O)O)NC(=O)C(C)(C)NC(=O)[C@@H](NC(=O)[C@H](CO)NC(=O)[C@H](CC(C)C)NC(=O)[C@H](CC(=O)O)NC(=O)[C@H](CO)NC(=O)[C@@H](NC(=O)[C@H](Cc1ccccc1)NC(=O)[C@@H](NC(=O)CNC(=O)[C@H](CCC(=O)O)NC(=O)C(C)(C)NC(=O)[C@@H](N)Cc1ccc(O)cc1)[C@@H](C)O)[C@@H](C)CC)[C@@H](C)CC)[C@@H](C)CC)C(=O)N[C@@H](CCC(N)=O)C(=O)N[C@@H](Cc1c[nH]c2ccccc12)C(=O)N[C@@H](CC(C)C)C(=O)N[C@@H](CC(C)C)C(=O)N[C@@H](C)C(=O)N[C@@H](CCC(N)=O)C(=O)NCC(=O)N1CCC[C@H]1C(=O)N[C@@H](CO)C(=O)N[C@@H](CO)C(=O)NCC(=O)N[C@@H](C)C(=O)N1CCC[C@H]1C(=O)N1CCC[C@H]1C(=O)N1CCC[C@H]1C(=O)N[C@@H](CO)C(N)=O [SEQ ID NO: 35, H2N-Y-Aib-E-G-T-F-I-S-D-L-S-I-Aib-K[{AEEA}2-gGlu-C18OH]-DRIHQEEFIQWLLAQGPSSGAPPPS-NH2] (H-Y[Aib]EGTFISDLSI[Aib]K([AEEA-AEEA-γGlu-C18 diacid])DRIHQEEFIQWLLAQGPSSGAPPPS-NH2)",Blood glucose concentration AUC,"C57Bl/6 mice; Example 14 study, 3 nmol/kg s.c. 6 h before i.p. glucose, vehicle 24.44",+24.41 ± 0.743 mmol/L* 0-2 h
same,Incremental blood glucose concentration AUCi,"C57Bl/6 mice; Example 14 study, 3 nmol/kg s.c., vehicle 5.22",+5.57 ± 0.454 mmol/L* 0-2 h
same,Blood glucose concentration AUC,"C57Bl/6 mice; Example 14 study, 10 nmol/kg s.c. 6 h before i.p. glucose, vehicle 24.44",+20.67 ± 0.516 mmol/L* 0-2 h
same,Incremental blood glucose concentration AUCi,"C57Bl/6 mice; Example 14 study, 10 nmol/kg s.c., vehicle 5.22",+5.05 ± 0.432 mmol/L* 0-2 h
same,Blood glucose concentration AUC,"C57Bl/6 mice; Example 14 study, 30 nmol/kg s.c. 6 h before i.p. glucose, vehicle 24.44",+18.45 ± 0.308 mmol/L* 0-2 h
same,Incremental blood glucose concentration AUCi,"C57Bl/6 mice; Example 14 study, 30 nmol/kg s.c., vehicle 5.22",+3.03 ± 0.225 mmol/L* 0-2 h
same,Blood glucose concentration AUC,"C57Bl/6 mice; Example 14 study, 100 nmol/kg s.c. 6 h before i.p. glucose, vehicle 24.44",+15.17 ± 0.452 mmol/L* 0-2 h
same,Incremental blood glucose concentration AUCi,"C57Bl/6 mice; Example 14 study, 100 nmol/kg s.c., vehicle 5.22",+1.76 ± 0.222 mmol/L* 0-2 h
same,minimal effective dose for improvement of i.p. glucose tolerance,C57Bl/6 mice,10 to 30 nmol/kg
"CC[C@H](C)[C@H](NC(=O)[C@H](CCC(=O)O)NC(=O)[C@H](CCC(=O)O)NC(=O)[C@H](CCCCNC(=O)COCCOCCNC(=O)COCCOCCNC(=O)CC[C@H](NC(=O)CCCCCCCCCCCCCCCCC(=O)O)C(=O)O)NC(=O)C(C)(C)NC(=O)[C@@H](NC(=O)[C@H](CO)NC(=O)[C@H](CC(C)C)NC(=O)[C@H](CC(=O)O)NC(=O)[C@H](CO)NC(=O)[C@@H](NC(=O)[C@H](Cc1ccccc1)NC(=O)[C@@H](NC(=O)CNC(=O)[C@H](CCC(=O)O)NC(=O)C(C)(C)NC(=O)[C@@H](N)Cc1ccc(O)cc1)[C@@H](C)O)[C@@H](C)CC)[C@@H](C)CC)C(=O)N[C@@H](Cc1c[nH]cn1)C(=O)N[C@@H](CCC(N)=O)C(=O)NC(C)(C)C(=O)N[C@@H](CCC(=O)O)C(=O)N[C@@H](Cc1ccccc1)C(=O)N[C@H](C(=O)N[C@@H](CCC(=O)O)C(=O)N[C@@H](Cc1c[nH]c2ccccc12)C(=O)N[C@@H](CC(C)C)C(=O)N[C@@H](CC(C)C)C(=O)N[C@@H](C)C(=O)N[C@@H](CCC(N)=O)C(=O)NCC(=O)N1CCC[C@H]1C(=O)N[C@@H](CO)C(=O)N[C@@H](CO)C(=O)NCC(=O)N[C@@H](C)C(=O)N1CCC[C@H]1C(=O)N1CCC[C@H]1C(=O)N1CCC[C@H]1C(=O)N[C@@H](CO)C(N)=O)[C@@H](C)CC [SEQ ID NO: 19, H2N-Y-Aib-E-G-T-F-I-S-D-L-S-I-Aib-K[{AEEA}2-gGlu-C18OH]-E-E-I-H-Q-Aib-E-F-I-E-W-L-L-A-Q-G-P-S-S-G-A-P-P-P-S-NH2] (H-Y[Aib]EGTFISDLSI[Aib]K([AEEA-AEEA-γGlu-C18 diacid])EEIHQ[Aib]EFIEWLLAQGPSSGAPPPS-NH2)",AUC(0-t),"[1]; iv, 0.05 mg/kg i.v.",50500 ng·h/mL
same,Cmax,"[1]; iv, 0.05 mg/kg i.v.",1980 ng/mL
same,clearance,"[1]; iv, 0.05 mg/kg i.v.",15.4 mL/day/kg
same,half-life,"[1]; iv, 0.05 mg/kg i.v.",64.1 h
same,AUC(0-t),"[1]; sc, 0.1 mg/kg s.c.",56800 ng·h/mL
same,Cmax,"[1]; sc, 0.1 mg/kg s.c.",723 ng/mL
same,bioavailability,"[1]; sc, 0.1 mg/kg s.c.",56%
"CC[C@H](C)[C@H](NC(=O)[C@H](CCCNC(=N)N)NC(=O)[C@H](CC(=O)O)NC(=O)[C@H](CCCCNC(=O)COCCOCCNC(=O)COCCOCCNC(=O)CC[C@H](NC(=O)CCCCCCCCCCCCCCCCC(=O)O)C(=O)O)NC(=O)C(C)(C)NC(=O)[C@@H](NC(=O)[C@H](CO)NC(=O)[C@H](CC(C)C)NC(=O)[C@H](CC(=O)O)NC(=O)[C@H](CO)NC(=O)[C@@H](NC(=O)[C@H](Cc1ccccc1)NC(=O)[C@@H](NC(=O)CNC(=O)[C@H](CCC(=O)O)NC(=O)C(C)(C)NC(=O)[C@@H](N)Cc1ccc(O)cc1)[C@@H](C)O)[C@@H](C)CC)[C@@H](C)CC)C(=O)N[C@@H](Cc1c[nH]cn1)C(=O)N[C@@H](CCC(N)=O)C(=O)NC(C)(C)C(=O)N[C@@H](CCC(=O)O)C(=O)N[C@@H](Cc1ccccc1)C(=O)N[C@H](C(=O)N[C@@H](CCC(=O)O)C(=O)N[C@@H](Cc1c[nH]c2ccccc12)C(=O)N[C@@H](CC(C)C)C(=O)N[C@@H](CC(C)C)C(=O)N[C@@H](C)C(=O)N[C@@H](CCC(N)=O)C(=O)N[C@@H](CCCNC(=N)N)C(=O)NCC(N)=O)[C@@H](C)CC [SEQ ID NO: 6, H2N-Y-Aib-E-G-T-F-I-S-D-L-S-I-Aib-K[{AEEA}2-gGlu-C18OH]-D-R-I-H-Q-Aib-E-F-I-E-W-L-L-A-Q-R-G-NH2]",Blood glucose concentration AUC,"C57Bl/6 mice; Example 13 study, 3 nmol/kg s.c. 6 h before i.p. glucose, vehicle 23.20",+21.51 ± 0.580 mmol/L* 0-2 h
same,Incremental blood glucose concentration AUCi,"C57Bl/6 mice; Example 13 study, 3 nmol/kg s.c., vehicle 5.50",+3.85 ± 0.438 mmol/L* 0-2 h
same,Blood glucose concentration AUC,"C57Bl/6 mice; Example 13 study, 10 nmol/kg s.c. 6 h before i.p. glucose, vehicle 23.20",+19.37 ± 0.309 mmol/L* 0-2 h
same,Incremental blood glucose concentration AUCi,"C57Bl/6 mice; Example 13 study, 10 nmol/kg s.c., vehicle 5.50",+3.84 ± 0.240 mmol/L* 0-2 h
same,Blood glucose concentration AUC,"C57Bl/6 mice; Example 13 study, 30 nmol/kg s.c. 6 h before i.p. glucose, vehicle 23.20",+17.22 ± 0.453 mmol/L* 0-2 h
same,Incremental blood glucose concentration AUCi,"C57Bl/6 mice; Example 13 study, 30 nmol/kg s.c., vehicle 5.50",+2.87 ± 0.382 mmol/L* 0-2 h
same,Blood glucose concentration AUC,"C57Bl/6 mice; Example 13 study, 100 nmol/kg s.c. 6 h before i.p. glucose, vehicle 23.20",+15.35 ± 0.308 mmol/L* 0-2 h
same,Incremental blood glucose concentration AUCi,"C57Bl/6 mice; Example 13 study, 100 nmol/kg s.c., vehicle 5.50",+1.21 ± 0.361 mmol/L* 0-2 h
same,minimal effective dose for improvement of i.p. glucose tolerance,C57Bl/6 mice,10 to 30 nmol/kg
